IC50 data for twelve compounds are collected here from US5081126A, “Quinolyl- and isoquinolyl-methoxyphenyl-dithioacetyl derivatives useful as antiinflammatory agents” (Fujisawa Pharmaceutical Co., Ltd., priority 1987, dated 1992).

The IC50 is the concentration needed to halve the response being measured.

Where a name gives a salt, the structure may show the parent alone.

The test system of this experiment is SRS-A (Slow Reacting Substance of Anaphylaxis) synthesis in rat polymorpholeukocyte (PMN). As to the kind of experiment: Inhibiting activity of SRS-A (Slow Reacting Substance of Anaphylaxis) synthesis in rat polymorpholeukocyte (PMN) using the calcium ionophore; i-LTC4 by radioimmunoassay. The note with it: 0.25 h, 10 μM A23187, 15 min at 37° C., i-LTC4 readout. Type of experiment: cell-based. As for the experimental part: Test : Inhibiting activity of SRS-A (Slow Reacting Substance of Anaphylaxis) synthesis in rat polymorpholeukocyte (PMN) of using the calcium ionophore
Preparation of PMN from rat
Male Spraque-Dawley rats weighing 250-300 g were anesthetized with ether and each was injected intraperitoneally with 20 ml of 0.1% glycogen (from Oyster). After 20 hours the rats were sacrificed and PMN were recovered in rinse of the peritoneal cavity with 10 ml Dulbeccos PBS (components in G/L : CaCl 0.1, KH2 PO4 0.2, MgCl2.6H2 O 0.1, NaCl 8.0, Na2 HPO4.7H2 O 2.16; pH 7.4). These rinses were filtered through nylon wool filter and centrifuged for 5 min at 1000 xg. The pellet was suspended in Dulbeccos PBS and centrifuged for 5 min at 1000 xg. The pellet was resuspended in Dulbeccos PBS and adjusted the cell concentration to 10^7 cells/ml with Dulbeccos PBS.
Samples were dissolved in ethanol and dispersed in Dulbeccos PBS to give a concentration of 10^-8 to 10^-3 M. Antibiotic A23187; calcium ionophor (Dehring Diagnostics; (hereinafter referred to A23187) in DMSO (10mM) was diluted with Dulbeccos PBS tc give the concentration of 1 mM. Aliquots of the cell suspension (1×10^7 cells/ml, 0.98 ml) were equilibrated for 30 min at 37° C. Solution of sample(10 ul) was added and incubated for 15 min at 37° C. before the addition of 10 μl of A23187 solution. Thus the final incubation volume of 1 ml contained approximately 1×10^7 cells, 10^-10 to […] M samples and 10 μM A23187. Incubation with A23187 were continued for 15 min at 37° C. The reactions were terminated by setting the assay tubes in ice bath to chill as rapidly as possible to 4° C. The test tubes were centrifuged at 1500 xg for 5 min at 4° C. and decanted the supernatants into the tubes and kept cold prior to assaying.
Determination of immunoreactive LTC4 (i-LTC4)
The concentration of i-LTC4 in the cell-free supernatants from the incubations were determined by specific radioimmunoassay. The mean values of i-LTC4 (these incubations were carried out in duplicate) of each sample were calculated and the effect of samples on the synthesis of the leukotrienes was presented as a percentage of the value in the absence of samples.
Turning to `CCCSC(SCCC)c1cccc(OCc2ccc3ccccc3n2)c1` [Example 3, 2-[[[3-bis(propylthio)methyl]phenoxy]methyl]quinoline hydrochloride], the IC50 worked out at 0.039 µM.

For `CCCSC(SCCC)c1cccc(OCc2nc3ccccc3s2)c1` [Example 1, 2-[[[3-bis(propylthio)methyl]phenoxy]methyl]benzothiazole], the IC50 came out at 0.3 µM.

Consider `CC(C)SC(SC(C)C)c1cccc(OCc2nc3ccccc3s2)c1` [Example 16, 2-[[[3-Bis(isopropylthio)methyl]phenoxy]methyl]benzothiazole], for which the IC50 amounted to 0.11 µM.

With `CCSC(SCC)c1cccc(OCc2ccc3ccccc3n2)c1` [Example 6, 2-[[[3-Bis(ethylthio)methyl]phenoxy]methyl]quinoline hydrochloride], the IC50 turned out to be 0.13 µM.

Turning to `CCCCCSC(SCCCCC)c1cccc(OCc2ccc3ccccc3n2)c1` [Example 8, 2-[[[3-Bis(pentylthio)methyl]phenoxy]methyl]quinoline hydrochloride], the IC50 was 0.33 µM.

For the compound `CCCSC(SCCC)c1cccc(OCc2ncc3ccccc3n2)c1` [Example 22, 2-[[[3-Bis(propylthio)methyl]phenoxy]methyl]quinazoline hydrochloride], the IC50 turned out to be 0.85 µM.

Turning to `CCCSC(SCCC)c1ccc(OCc2ccc3ccccc3n2)cc1` [Example 5, 2-[[[4-Bis(propylthio)methyl]phenoxy]methyl]quinoline hydrochloride], the concentration for half-maximal inhibition (IC50) was determined as 0.11 µM.

Take `CCCCSC(SCCCC)c1cccc(OCc2ccc3ccccc3n2)c1` [Example 7, 2-[[[3-Bis(butylthio)methyl]phenoxy]methyl]quinoline hydrochloride]: the half-inhibitory concentration (IC50) worked out at 0.16 µM.

Regarding `c1ccc(SC(Sc2ccccc2)c2cccc(OCc3ccc4ccccc4n3)c2)cc1` [Example 10, 2-[[[3-Bis(phenylthio)methyl]phenoxy]methyl]quinoline hydrochloride], the IC50 turned out to be 1.1 µM.

As for `c1ccc(CSC(SCc2ccccc2)c2cccc(OCc3ccc4ccccc4n3)c2)cc1` [Example 11, 2-[[[3-Bis(benzylthio)methyl]phenoxy]methyl]quinoline], the half-inhibitory concentration (IC50) turned out to be 1.4 µM.

Regarding `CC(C)SC(SC(C)C)c1cccc(OCc2ccc3ccccc3n2)c1` [Example 9, 2-[[[3-Bis(isopropylthio)methyl]phenoxy]methyl]quinoline hydrochloride], the IC50 is 0.1 µM.

For the compound `CCCSC(SCCC)c1cccc(OCc2ccccn2)c1` [Example 2, 2-[[[3-Bis(propylthio)methyl]phenoxy]methyl]pyridine hydrochloride], the IC50 was 0.52 µM.
